Data set [1] relates to RAW 264.7 cells. As to the kind of experiment: LDH release assay. The class given is cell-based. The procedure:
FIG. 5A-C. […] Mice were euthanized 48 hours after infection. […] Significance was determined by Mann-Whitney.
LDH assays: An LDH-cytotoxicity assay kit (Abcam ab65393) was used according to the manufacturer's instructions. RAW 264.7 cells were seeded and remained uninfected or with infected as described for the CFU assay with SL1344.
On the technique in general: LDH leaks from cells whose membrane has failed.

Data set [2] deals with RAW 264.7 cells. As to the kind of experiment: Mitochondrial membrane potential with TMRM. The conditions noted are these: uninfected RAW 264.7 cells; D66 first two hours; CCCP 7 μM.
In data set [3] the test system is S. Typhimurium. As to the kind of experiment: Growth curves and kill curves. In kind it is cell-based. Particulars: outer-membrane perturbing conditions, D66 at 2x MIC, LB or MHB, 18 hours. The procedure: (§1) FIG. 3A-F. D66 rapidly perturbs the bacterial cytoplasmic membrane with minor disruption of barrier function. Mid-log phase S. Typhimurium cells grown in LB with 0.5 μg/mL PMB were used for all experiments. A) Cell membrane potential was monitored with the fluorescent dye DiSC3 (5). Cells were treated at time 0 with DMSO, JD1 [70 μM], or D66. Data were normalized to DMSO at time 0 and corrected for the quenching effect of D66 (FIG. 6A, B) B) Cell membrane permeability was monitored by PI fluorescence. Cells were treated at time 0 with DMSO, SDS [0.005%] or D66. Samples were processed at the time points shown. A one-way ANOVA with a Dunnet's multiple comparison test, * P<0.005. C-F) Growth curves and kill-curves of cells treated at time 0 with either DMSO or D66. Culture aliquots were monitored for OD600 (C, E) or plated for enumeration of CFU (D, F). Data are presented as fold change. Mean and SEM of three biological replicates with technical triplicates are shown in all panels.
Growth curves and kill curves: Mid-log phase cultures were sampled at time 0 and then compound or vehicle control (DMSO) was added. Cultures were incubated at 37° C. with agitation. At the time intervals indicated, aliquots were monitored for OD600 and plated for CFU enumeration. Data for OD600 and CFU/mL were normalized to time 0.

The nature of data set [4]: Solubility limit in assay medium. In kind it is physicochemical. Particulars: bacterial growth broth (LB or MHB), 37 °C, plasma or biological fluid, kinetic from dmso stock, final DMSO at or below 2%.
For data set [5], the system named is S. aureus FDA209. Nature of the data set: Growth curves and kill curves of mid-log phase S. aureus. The class given is cell-based. The procedure: FIG. 9A-B. D66 is bactericidal to mid-log phase S. aureus. A) Growth curves and B) kill-curves. Mid-log phase cultures of S. aureus FDA209 were treated at time 0 with either DMSO or the indicated concentration of D66 (1x MIC95=130 μM). Cultures were monitored for OD600 and plated for enumeration of colony forming units (CFU). Data are presented as fold change. Mean and SEM of three biological replicates performed with technical triplicates.

Data set [6] deals with S. Typhimurium. As to the kind of experiment: Propidium iodide membrane barrier assay. In kind it is cell-based. The procedure: as §1
Propidium iodide membrane barrier assays: Compound, DMSO, or SDS was added to mid-log phase cells to the desired concentration, and cultures were sampled at 0, 10, 15, 20, 30 and 45 minutes. Five minutes before harvesting, PI [10 μg/mL] (Life Technologies) was added. Cells were pelleted, washed twice, resuspended in PBS, and monitored (ex535/em617 nm) using a BioTek Synergy H1 plate reader.

Data set [7] has as its system S. Typhimurium SL1344 or 14028 in RAW 264.7 cells. Nature of the data set: CFU assay in infected RAW 264.7 macrophages. The conditions noted are these: for IC50: Salmonella enterica, TYPHIMURIUM
The class given is cell-based. The procedure:
FIG. 1A-D. D66 is a small molecule that prevents S. Typhimurium replication and/or survival in macrophages. A). Structure of D66. B) RAW264.7 macrophage-like cells were infected with S. Typhimurium harboring a chromosomal sifB: : gfp reporter, treated with DMSO or D66 at two hours after infection, and monitored for bacterial accumulation (GFP+Macrophage Area) over 16 hours using the SAFIRE (Screen for Anti-infectives using Fluorescence microscopy of Intracellular Enterobacteriaceae) assay. The IC50 value is indicated. Mean and SD of biological duplicates with technical duplicates across 9 dilutions of D66. C, D) CFU assays were performed with RAW264.7 or HeLa cells infected with S. Typhimurium SL1344 or 14028 for two hours and treated for 16 hours with DMSO or 1.5-fold dilutions of D66, prior to lysis and plating for CFU. Symbols on the Y-axes are the CFU value from DMSO-treated samples. The IC50 values are indicated. Mean and SEMs of biological triplicates with technical duplicates across 8 dilutions of D66.
CFU assays were performed with RAW 264.7 cells seeded as above or with Hela cells (ATCC CCL-2) seeded at 1x10^4 cells per 96-well. Cells were infected as described above with either S. Typhimurium SL1344 or 14028, as indicated at an approximate MOI of 30 bacteria per RAW 264.7 cell and 150 bacteria per HeLa cell. Plates were centrifuged and gentamicin treated as above. At 18 hours after infection, wells were washed twice with PBS and lysed with 30 μL 0.1% Triton X-100 in PBS for five minutes. Lysed cells were plated to L-agar and enumerated for CFU.

In data set [8] the test system is S. aureus FDA209. As to the kind of experiment: Membrane permeability by PI fluorescence. In kind it is cell-based. The conditions noted are these: mid-log S. aureus FDA209. The procedure: Mid-log phase S. aureus FDA209 cells were used for all experiments. A) Membrane fluidity was evaluated with a Laurdan generalized polarization (GP) assay. Cells were exposed at time 0 to DMSO, benzyl alcohol (BnOH, a membrane fluidizer [50 mM]), or D66 (1x MIC95=130 μM). Mean and SEM of three biological replicates performed with technical triplicates. B) Membrane permeability was monitored by PI fluorescence. Cells were exposed at time 0 to DMSO, SDS [0.3%], or D66. Samples were processed at the timepoints shown. Mean and SEM of three biological replicates performed with technical triplicates. C) Intracellular pH was monitored with the fluorescent probe BCECF-AM. Cells were exposed at time 0 to DMSO, the protonophore CCCP [100 μM], or D66. Mean and SEM of three biological replicates performed with technical triplicates. D) Intracellular ATP levels measured using the Promega BacTiter-Glo kit after 30 minutes of treatment with DMSO, chloramphenicol (Chlor), or D66. Mean and SEM of three biological replicates performed with technical triplicates. E) Respiration rates of cells incubated with resazurin and treated at time 0 as indicated. Mean and […]

In brackets after ≈: the same amount, converted by molar mass. Read-outs that look alike come from different tables or passages of the source. A value given as a limit tells only on which side of the number the result lay.

The term solubility denotes the concentration that dissolves in the medium under given conditions. Read a low solubility as a poorly soluble substance. The term IC50 denotes the concentration that inhibits the measured activity by half. For the molecule `O=C(Nc1cc(Cl)cc(Cl)c1)N1CCCN(Cc2ccccc2)CC1` [D66], the LDH release entry in the data set on RAW 264.7 cells [1] (RAW 264.7 cells infected with S. Typhimurium SL1344, 16 hours) is reported as “reduced the percentage of cells that released LDH in a dose-dependent manner”; with RAW 264.7 cells [1] (uninfected RAW 264.7 cells, 16 hours), “little effect on LDH release”. In addition, the “TMRM fluorescence (mitochondrial membrane potential)” value in the data set with RAW 264.7 cells [2] was “increased TMRM signal in a dose-dependent manner”. In the data set with S. Typhimurium [3], the “absorbance and CFU of bacteria (cell lysis)” value is recorded as “did not reduce the absorbance nor the CFU of bacteria”. In data set [4], this molecule came in with a solubility of approximately 150 µM (≈ 56.7 µg/mL). Besides, the “killing of mid-log phase S. aureus” value with S. aureus FDA209 [5] is “bactericidal”. Also, in the data set on S. Typhimurium [6] (LB with PMB [0.5 μg/mL], D66 at 1x MIC95), the “time elapsed prior to an increase in PI fluorescence” value was 45 min. Also, the “time of treatment after which PI signal increased” value with S. Typhimurium [6] (LB with PMB [0.5 μg/mL], D66 at 2x MIC95, SDS [0.005%] positive control) stood at 10 min. In addition, the PI signal increase result in the data set with S. Typhimurium [6] (at 1x MIC, within 30 minutes) was “two-fold”. The IC50 in data set [7] (RAW264.7, 16 h, S. Typhimurium 14028 in macrophages, treated 16 hours, read-out: CFU IC50) was 4.9 µM; in data set [7] (RAW264.7, 16 h, S. Typhimurium SL1344 in macrophages, treated 16 hours, read-out: CFU IC50), 7.7 µM; in data set [7] (RAW264.7, as quoted for dose selection, read-out: IC50 of D66 against S. Typhimurium in macrophages), approximately 7.8 µM. The molecule further had a CFU reduction in data set [7] (macrophages) of more than 1000 fold. For the same molecule, in the data set on S. aureus FDA209 [8], the “cell membrane rupture (PI permeability)” value is listed as “does not rupture the cell membrane”.

The values are drawn from patent US20250302846A1, “ANTIBIOTIC COMPOSITION AND METHODS OF USE THEREOF” (THE REGENTS OF THE UNIVERSITY OF COLORADO A BODY CORPORATE, priority 2022, published 2025).
